In patent US20130296384A1, “N-SUBSTITUTED(6 HALOALKYLPYRIDIN 3 YL)ALKYL SULFOXIMINES AS A SEED TREATMENT TO CONTROL COLEOPTERAN INSECTS” (Dow AgroSciences LLC, priority 2012, published 2013):

Tests used:
[1] = system: canola (Brassica napus); test: Canola seed treatment field test: canola plant vigor under natural flea beetle infestation; type: in vivo; conditions: 13 days after canola emergence
Experimental: (§1) The effectiveness of sulfoxaflor as a canola (Brassica napus) seed treatment to control feeding damage by cabbage flea beetle (Phyllotreta cruciferae) was evaluated against the commercial standard thiamethoxam (Helix Xtra). Canola seeds were sprayed with a range of insecticides, including Helix Xtra at a use rate of about 0.4 milligrams (mg) thiamethoxam ai/seed, spinosyn A and spinosyn D (spinosad) at a low use rate of about 0.2 mg ai/seed and a high use rate of about 0.6 mg ai/seed, spinetoram at a low use rate of about 0.2 mg ai/seed and a high use rate about 0.6 mg ai/seed, and sulfoxaflor at a low use rate of about 0.2 mg ai/seed and a high use rate about 0.6 mg ai/seed. Each treatment was replicated four (4) times. The canola seeds were planted and then exposed to a natural infestation of the cabbage flea beetles soon after emergence.
Canola plant vigor was evaluated at thirteen (13) days after the canola seed emerged from the ground described above. […] As depicted in FIG. 3, both the low use rate of sulfoxaflor and the high use rate of sulfoxaflor facilitated improved canola plant vigor as compared to the use of Helix Xtra.

[2] = system: canola (Brassica napus); test: Canola seed treatment field test: canola plant yield under natural flea beetle infestation; type: in vivo; conditions: 107 days after canola emergence
Experimental: as §1
Canola plant yield was evaluated at 107 days after the canola seed emerged from the ground described above. […] As depicted in FIG. 4, the low use rate of sulfoxaflor facilitated a canola plant yield similar to that facilitated by the use of Helix Xtra, and the high use rate of sulfoxaflor facilitated improved canola plant yield as compared to the use of Helix Xtra.

[3] = high use rate about 0.6 mg ai/seed
[4] = low use rate about 0.2 mg ai/seed

Q: For `CC(c1ccc(C(F)(F)F)nc1)S(C)(=O)=NC#N` (stereo not shown) [sulfoxaflor], which canola plant vigor [1, 3] is on record?
A: about 69%

Q: What about the canola plant vigor [1, 4] of the same molecule?
A: about 87%

Q: And the canola plant yield [2, 3]?
A: about 4500 kg/ha

Q: And the canola plant yield [2, 4]?
A: about 4050 kilograms (Kg)/hectare (ha)
